A short description of this data set: Clearance in male mouse at 20 mg/kg, po or 5 mg/kg, iv by LC-MS/MS analysis. It counts as ADME, organism-based. To be noted: in vivo.

In turn, `O=C(/N=c1\sccn1Cc1ccccc1)c1n[nH]c2ncccc12` had a CL of 28.3 mL/min/kg.

The values above are taken from ChEMBL document CHEMBL6134792, “Discovery of selective LATS inhibitors via scaffold hopping: enhancing drug-likeness and kinase selectivity for potential applications in regenerative medicine” (RSC Med Chem, 2024).
